Converted amounts (≈) assume the structure as drawn.
What was measured:
[1] = system: Mycobacterium tuberculosis; assay: Antimycobacterial activity against clinical isolate multi drug resistant Mycobacterium tuberculosis H37Rv assessed as inhibition of bacterial growth; format: functional, organism-based
[2] = system: Mycobacterium tuberculosis; assay: Antimycobacterial activity against Mycobacterium tuberculosis Rv1305 harbouring atpE gene; format: functional
[3] = Inhibition of Mycobacterium tuberculosis H37Rv cytochrome bd oxidase with ATP synthase overexpression inverted membrane vesicles; format: cell membranes, Membrane vesicle

`CC(C)(C)c1ccc(CCNc2ncnc3ccsc23)cc1` gave an IC50 [1] of 18.9 µM.

For `NC(=O)NC(=O)c1nc(-c2cc3ccccc3o2)c(N)nc1N`, the MIC [2] was 5 µM (≈ 1.56 µg/mL).

`c1ccc(CCNc2ncnc3ccccc23)cc1` showed an IC50 [3] of 27 µM.

With `CCc1nc2ccc(Cl)cn2c1C(=O)NCc1ccc(N2CCC(c3ccc(OC(F)(F)F)cc3)CC2)cc1` [TELACEBEC] the MIC [1] was ≤ 1 µM.
